Data set [1] relates to HL-60, MOLM-13, AMO-1, and KMS-12 PE cancer cells. Put plainly: Proliferation, range over the four tested cancer cell lines. The class given is cell-based. Conditions: HL-60, MOLM-13, AMO-1, KMS-12 PE; read-out: IC50 inhibition of proliferation, range over cell lines. The method, then:
Acute myeloid leukemia cell line HL-60 and multiple myeloma cell lines AMO-1 and KMS-12-PE were obtained from the German Collection of Microorganisms and Cell Cultures (DSMZ), Braunschweig, Germany, and non-tumorigenic stromal cell line HS-5 was acquired from the American Type Culture Collection (ATCC, Manassas, VA, USA). All cell lines were cultured in RPMI 1640 medium without phenol red (Pan Biotech, Aidenbach, Germany), supplemented with 2 mM glutamine, 100 U/mL penicillin, 100 µg/mL streptomycin (Sigma-Aldrich, St. Louis, MO, USA), and 10% fetal bovine serum (FBS Maximus, Catus Biotech GmbH, Tutzing, Germany) at 37 °C in a humidified atmosphere of 5% CO2/95% air. […] Cell proliferation was assessed by [^3H]-thymidine uptake. […] Cells were harvested using a semi-automated device, and [^3H]-thymidine incorporation (expressed in counts per minute, cpm) was measured with a scintillation counter (MicroBeta TriLux, PerkinElmer, Waltham, MA, USA). Metabolic activity was assessed by resazurin staining. […] Relative fluorescence units (RFUs) were measured using a Synergy H1 plate reader equipped with a 560 nm excitation/590 nm emission filter set (BioTek; Agilent, Santa Clara, CA, USA). Proliferation and metabolic activity in the absence of compounds were defined as 100% (control), and the values for compound-treated samples were expressed as percentages relative to the control. […]

The next data set has as its system CEM. Details: method as in PMID 15577239. Conditions: cited from earlier work.
Data set [2] has as its system MOLM-13 cells. Put plainly: Metabolic activity, resazurin staining, MOLM-13. The class given is cell-based. The method, then:
[The source words this procedure for another cell line and reports this cell line under the same test.] (§1) Acute myeloid leukemia cell line HL-60 and multiple myeloma cell lines AMO-1 and KMS-12-PE were obtained from the German Collection of Microorganisms and Cell Cultures (DSMZ), Braunschweig, Germany, and non-tumorigenic stromal cell line HS-5 was acquired from the American Type Culture Collection (ATCC, Manassas, VA, USA). All cell lines were cultured in RPMI 1640 medium without phenol red (Pan Biotech, Aidenbach, Germany), supplemented with 2 mM glutamine, 100 U/mL penicillin, 100 µg/mL streptomycin (Sigma-Aldrich, St. Louis, MO, USA), and 10% fetal bovine serum (FBS Maximus, Catus Biotech GmbH, Tutzing, Germany) at 37 °C in a humidified atmosphere of 5% CO2/95% air. Cells were fed twice weekly. Logarithmically growing cells were resuspended at 1 × 10^5 cells/mL, plated in triplicate in round-bottom 96-well plates (100 µL per well; Falcon, Becton Dickinson, Franklin Lakes, NJ, USA), and incubated at 37 °C in 5% CO2/95% air for 2 h. Subsequently, the compounds were adjusted in the cell culture medium to reach the final concentrations in a total volume of 150 µL and incubated for an additional 72 h. Cell proliferation was assessed by [^3H]-thymidine uptake. Each well was exposed to 2 µCi [^3H]-thymidine (Hartmann Analytic, Braunschweig, Germany) during the final 12–16 h of incubation. Cells were harvested using a semi-automated device, and [^3H]-thymidine incorporation (expressed in counts per minute, cpm) was measured with a scintillation counter (MicroBeta TriLux, PerkinElmer, Waltham, MA, USA). Metabolic activity was assessed by resazurin staining. Resazurin (Carl Roth, Karlsruhe, Germany) was dissolved in distilled water at a concentration of 0.1 mg/mL, and 15 µL of this solution was added to each well, followed by a 2 h incubation at 37 °C. Relative fluorescence units (RFUs) were measured using a Synergy H1 plate reader equipped with a 560 nm excitation/590 nm emission filter set (BioTek; Agilent, Santa Clara, CA, USA). Proliferation and metabolic activity in the absence of compounds were defined as 100% (control), and the values for compound-treated samples were expressed as percentages relative to the control. Selectivity indices were calculated by dividing the IC50 value of each compound against HS-5 cells through the IC50 values against the investigated cell lines.
(§2) The Wilcoxon Rank Sum Test was used to analyze proliferation and metabolic activity in the absence and presence of varying compound concentrations (NCSS 2007 software, version 07.1.2, Kaysville, UT, USA). A p-value < 0.05 was considered statistically significant. IC50 values were calculated using GraphPad Prism 10.1.2. This software reports 95% confidence intervals instead of standard errors. […] Nonetheless, the figures clearly illustrate the IC50 values due to the narrow concentration range tested.
(§3) Proliferation inhibition often leads to cell death. Therefore, the cytotoxic activity of the compounds was further evaluated using a modified 3-(4,5-dimethylthiazol-2-yl)-2,5-diphenyltetrazolium bromide (MTT) assay, the resazurin (Alamar Blue) assay. Metabolically active cells reduce the non-fluorescent dye resazurin to the fluorescent dye resorufin via mitochondrial reductase activity, which correlates with cell viability. In the first step the metabolic activity of the four isolated flavonoids was investigated, showing a dose-dependent reduction, but to a much lower extent than in the proliferation assays (Table A2). In fact, only 7,3′,4′-trimethoxymyricetin (2) inhibited the metabolic activity of all four cell lines by more than 50% at a concentration of 100 µM.
On the technique in general: The colour change of resazurin is a common sign of viable cells or microbes.

Data set [3] relates to AMO-1 cells. Put plainly: Metabolic activity, resazurin staining, AMO-1. The class given is cell-based. The method, then: as §1, §2, §3
The test system of data set [4] is myelomonocytic chicken cell line HD11-C3. Details: method as in PMID 23501116. Conditions: read-out: IC50 cytotoxic activity; cited from earlier work.
The test system of another data set is KMS-12-PE cells. Put plainly: Metabolic activity, resazurin staining, KMS-12-PE. It is filed as cell-based. The method, then:
as §1, §2, §3

In a further data set the test system is HT-29 cells. Details: method as in PMID 29350920. As to conditions: cited from earlier work.
In data set [5] the test system is AMO-1 cells. Put plainly: Proliferation, [3H]-thymidine uptake, AMO-1. It is filed as cell-based. The method, then:
as §1, §2

Data set [6] relates to HS-5 cells. Put plainly: Metabolic activity, resazurin staining, non-malignant HS-5. As to conditions: HS5, HS-5 (non-malignant), 72 h, 95% confidence interval in brackets, read-out: IC50 inhibition of metabolic activity. The class given is cell-based. The method, then:
as §1, with “Subsequently, the compounds were adjusted in the cell culture medium to reach the final concentrations in a total volume of 150 µL and incubated for an additional 72 h.” left out, “Each well was exposed to 2 µCi [^3H]-thymidine (Hartmann Analytic, Braunschweig, Germany) during the final 12–16 h of incubation.” left out, “Resazurin (Carl Roth, Karlsruhe, Germany) was dissolved in distilled water at a concentration of 0.1 mg/mL, and 15 µL of this solution was added to each well, followed by a 2 h incubation at 37 °C.” left out
(§4) The Wilcoxon Rank Sum Test was used to analyze proliferation and metabolic activity in the absence and presence of varying compound concentrations (NCSS 2007 software, version 07.1.2, Kaysville, UT, USA). […] IC50 values were calculated using GraphPad Prism 10.1.2. […]

The subject of a further data set is NF-κB. Details: method as in PMID 25621077. As to conditions: HT-29; cited from earlier work.
Data set [7] relates to human colon cancer cell line HT-29. More on the design: method as in PMID 22685350. Conditions: cited from earlier work.
Data set [8] deals with HL-60 cells. Put plainly: Metabolic activity, resazurin staining, HL-60. The class given is cell-based. The method, then:
as §1, §2, §3

The subject of data set [9] is HL-60 cells. Put plainly: Proliferation, [3H]-thymidine uptake, HL-60. It is filed as cell-based. The method, then:
as §1, §2

In data set [10] the test system is HS-5 cells. Put plainly: Proliferation, [3H]-thymidine uptake, non-malignant HS-5. It is filed as cell-based. As to conditions: HS5; HS-5 (non-malignant), 72 h, 95% confidence interval in brackets; read-out: IC50 inhibition of proliferation. The method, then: as §1, with “Subsequently, the compounds were adjusted in the cell culture medium to reach the final concentrations in a total volume of 150 µL and incubated for an additional 72 h.” left out, “Each well was exposed to 2 µCi [^3H]-thymidine (Hartmann Analytic, Braunschweig, Germany) during the final 12–16 h of incubation.” left out, “Resazurin (Carl Roth, Karlsruhe, Germany) was dissolved in distilled water at a concentration of 0.1 mg/mL, and 15 µL of this solution was added to each well, followed by a 2 h incubation at 37 °C.” left out
as §4

Data set [11] relates to MOLM-13 cells. Nature of the data set: Proliferation, [3H]-thymidine uptake, MOLM-13. The class given is cell-based. The method, then:
[The source words this procedure for another cell line and reports this cell line under the same test.] as §1, §2

The next data set has as its system BC cell line. More on the design: method as in PMID 17089326. As to conditions: cited from earlier work.

The structures appear in SMILES notation.

Regarding `C=C(C)C(=O)O[C@H]1C[C@@]2(C)OC(=CC2=O)/C(CO)=C\[C@H]2OC(=O)C(=C)[C@H]12` [Compound 5, goyazensolide], the IC50 in [1] was 1 to 1.6 µM; in the data set on CEM it was 0.17 µM; in the data set on MOLM-13 cells [2] (Homo sapiens, MOLM-13, 72 h, resazurin, 95% confidence interval in brackets, read-out: IC50 inhibition of metabolic activity) it was 1 µM; in the data set with AMO-1 cells [3] (Homo sapiens, AMO1, AMO-1, 72 h, resazurin, 95% confidence interval in brackets, read-out: IC50 inhibition of metabolic activity), 2 µM; in [4], 10.1 µM; in the data set with KMS-12-PE cells (Homo sapiens, KMS-12-PE, 72 h, resazurin, 95% confidence interval in brackets, read-out: IC50 inhibition of metabolic activity), 1.9 µM. For the same compound, the IC50 in the data set with HT-29 cells is 0.56 µM; with AMO-1 cells [5] (Homo sapiens, AMO1, 72 h, AMO-1, 72 h, 95% confidence interval in brackets, read-out: IC50 inhibition of proliferation) it was 1.6 µM; with HS-5 cells [6], 2.6 µM; in data set [7], 0.56 µM; in the data set with HL-60 cells [8] (Homo sapiens, HL-60, 72 h, resazurin, 95% confidence interval in brackets, read-out: IC50 inhibition of metabolic activity), 1.7 µM; with HL-60 cells [9] (Homo sapiens, HL-60, 72 h, 95% confidence interval in brackets, read-out: IC50 inhibition of proliferation), 1.1 µM. In addition, the IC50 in the data set on HS-5 cells [10] is 2 µM; in the data set with MOLM-13 cells [11] (Homo sapiens, MOLM-13, 72 h, 95% confidence interval in brackets, read-out: IC50 inhibition of proliferation), 1 µM; with BC cell line, below 0.3 µM. In addition, the “Selectivity index (metabolic activity)” value in the data set on MOLM-13 cells [2] (IC50 HS-5 / IC50 MOLM-13) is 2.6; in the data set with AMO-1 cells [3] (IC50 HS-5 / IC50 AMO-1), 1.3; in the data set on KMS-12-PE cells (IC50 HS-5 / IC50 KMS-12-PE), 1.4; in the data set with HL-60 cells [8] (IC50 HS-5 / IC50 HL-60), 1.5. Besides, the “Selectivity index (proliferation)” value in the data set on AMO-1 cells [5] (IC50 HS-5 / IC50 AMO-1) came out at 1.2; with HL-60 cells [9] (IC50 HS-5 / IC50 HL-60), 1.8; with MOLM-13 cells [11] (IC50 HS-5 / IC50 MOLM-13), 2.0. In addition, the “NF-κB inhibition (in words)” value with NF-κB is on record as “potent NF-κB inhibitor”.

These data come from article PMC12388523, “Flavonoids and Sesquiterpene Lactones from Lychnophora ericoides (Arnica-Do-Cerrado) and Their In Vitro Effects on Multiple Myeloma and Acute Myeloid Leukemia” (Metabolites, 2025).
